From paper PMC9944328 (Nature Communications, 2023)

Experiments:
Test in all cases: Bystander BRET endosomal trafficking (β-arrestin 1-Nluc, FYVE-mVenus), HEK293 (SSTR2 mutants);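 also: Read-out is the BRET ratio between Nluc-fused β-arrestin 1 and the early endosome marker FYVE-mVenus, measured after ligand addition with coelenterazine h as substrate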
[1] = target: SSTR2 mutants (Homo sapiens, UniProt P30874, W269A)
[2] = target: SSTR2 mutants (Homo sapiens, UniProt P30874, I130A)
[3] = tested on: SSTR2 mutants; details: for Fold of WT: Bystander BRET EC50; for EC50 / LogEC50 / Span / Top: best-fit value

SSTR2 mutants (Homo sapiens, UniProt P30874, I130A), sequence (P30874 whole entry I130A): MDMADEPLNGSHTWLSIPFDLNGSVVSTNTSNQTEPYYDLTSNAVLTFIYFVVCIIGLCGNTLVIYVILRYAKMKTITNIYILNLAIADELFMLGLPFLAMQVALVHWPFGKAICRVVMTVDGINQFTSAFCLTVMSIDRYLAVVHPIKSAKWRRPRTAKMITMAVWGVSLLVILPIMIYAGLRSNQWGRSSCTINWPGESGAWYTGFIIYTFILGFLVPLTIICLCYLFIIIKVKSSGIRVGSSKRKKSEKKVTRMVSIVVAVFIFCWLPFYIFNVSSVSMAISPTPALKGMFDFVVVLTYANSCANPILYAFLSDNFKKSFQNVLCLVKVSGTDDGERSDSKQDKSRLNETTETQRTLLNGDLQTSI
SSTR2 mutants (Homo sapiens, UniProt P30874, W269A), sequence (P30874 whole entry W269A): as the sequence (P30874 whole entry I130A) above, with A130I, W269A counted along it

SMILES: N#Cc1cccc(-c2ccc3ncc(-c4cc(F)cc(F)c4)c(N4CCC(N)CC4)c3c2)c1O [paltusotine]
- EC50 [1]: 130 ± 1.65 nM
- Emax ([1]; HEK293): 27.2 ± 2.61%
- Bottom (best-fit) ([1]; W269A-1 (run 1)): -0.847
- Bottom (best-fit) ([1]; W269A-2 (run 2)): -3.759
- Bottom (best-fit) ([1]; W269A-3 (run 3)): 0.08484
- Bottom (best-fit) ([2]; I130A-1 (run 1)): -1.998
- Bottom (best-fit) ([2]; I130A-2 (run 2)): 0.9306
- Bottom (best-fit) ([2]; I130A-3 (run 3)): -2.793
- Fold of WT ([3]; SSTR2 F294(7.35)A): 17.12
- Fold of WT ([3]; SSTR2 I284ECL3A): 0.73
- Fold of WT ([3]; SSTR2 K291(7.32)A): 0.73
- Fold of WT ([3]; SSTR2 N276(6.55)A): 1.19
- Fold of WT ([3]; SSTR2 W269(6.48)A): 1.06
- LogEC50 (best-fit) ([3]; I130A-1 (run 1)): ~ -2.099
- Span (best-fit) ([3]; I130A-1 (run 1)): ~ 8554
- Top (best-fit) ([3]; I130A-1 (run 1)): ~ 8552
- LogEC50 (best-fit) ([3]; I130A-2 (run 2)): -9.856
- Span (best-fit) ([3]; I130A-2 (run 2)): -10.4
- Top (best-fit) ([3]; I130A-2 (run 2)): -9.472
- LogEC50 (best-fit) ([3]; I130A-3 (run 3)): -9.469
- Span (best-fit) ([3]; I130A-3 (run 3)): 2.038
- Top (best-fit) ([3]; I130A-3 (run 3)): -0.7545
- LogEC50 (best-fit) ([3]; P220A-1 (run 1)): -6.735
- Span (best-fit) ([3]; P220A-1 (run 1)): 12.69
- Top (best-fit) ([3]; P220A-1 (run 1)): 13.21
- LogEC50 (best-fit) ([3]; P220A-2 (run 2)): ~ -2.138
- Span (best-fit) ([3]; P220A-2 (run 2)): ~ 22554
- Top (best-fit) ([3]; P220A-2 (run 2)): ~ 22557
- LogEC50 (best-fit) ([3]; P220A-3 (run 3)): -6.08
- Span (best-fit) ([3]; P220A-3 (run 3)): 20.28
- Top (best-fit) ([3]; P220A-3 (run 3)): 17.78
- LogEC50 (best-fit) ([3]; R140A-1 (run 1)): -8.331
- Span (best-fit) ([3]; R140A-1 (run 1)): 51.38
- Top (best-fit) ([3]; R140A-1 (run 1)): 50.75
- LogEC50 (best-fit) ([3]; R140A-2 (run 2)): -8.178
- Span (best-fit) ([3]; R140A-2 (run 2)): 55.99
- Top (best-fit) ([3]; R140A-2 (run 2)): 44.7
- LogEC50 (best-fit) ([3]; R140A-3 (run 3)): -8.181
- Span (best-fit) ([3]; R140A-3 (run 3)): 61.6
- Top (best-fit) ([3]; R140A-3 (run 3)): 61.78
- LogEC50 (best-fit) ([3]; W269A-1 (run 1)): -6.886
- Span (best-fit) ([3]; W269A-1 (run 1)): 28.05
- Top (best-fit) ([3]; W269A-1 (run 1)): 27.2
- LogEC50 (best-fit) ([3]; W269A-2 (run 2)): -6.322
- Span (best-fit) ([3]; W269A-2 (run 2)): 26.76
- Top (best-fit) ([3]; W269A-2 (run 2)): 23
- LogEC50 (best-fit) ([3]; W269A-3 (run 3)): -6.81
- Span (best-fit) ([3]; W269A-3 (run 3)): 22.83
- Top (best-fit) ([3]; W269A-3 (run 3)): 22.91
- LogEC50 (best-fit) ([3]; Y312A-1 (run 1)): -8.087
- Span (best-fit) ([3]; Y312A-1 (run 1)): 42.16
- Top (best-fit) ([3]; Y312A-1 (run 1)): 41.34
- LogEC50 (best-fit) ([3]; Y312A-2 (run 2)): -7.939
- Span (best-fit) ([3]; Y312A-2 (run 2)): 49.41
- Top (best-fit) ([3]; Y312A-2 (run 2)): 47.36
- LogEC50 (best-fit) ([3]; Y312A-3 (run 3)): -8.193
- Span (best-fit) ([3]; Y312A-3 (run 3)): 41.16
- Top (best-fit) ([3]; Y312A-3 (run 3)): 41.43
- Internalization of microswitch mutants ([3]; alanine substitution of microswitch residues): reduced receptor internalization
- EC50 ([3]; F265A-1 (run 1)): 11900 nM
- LogEC50 ([3]; F265A-1 (run 1)): -4.926
- Span ([3]; F265A-1 (run 1)): 10.7
- Top ([3]; F265A-1 (run 1)): 10.68
- LogEC50 ([3]; F265A-2 (run 2)): -7.219
- Span ([3]; F265A-2 (run 2)): 0.6462
- Top ([3]; F265A-2 (run 2)): -7.332
- EC50 ([3]; F265A-3 (run 3)): 14700 nM
- LogEC50 ([3]; F265A-3 (run 3)): -4.832
- Span ([3]; F265A-3 (run 3)): 19.35
- Top ([3]; F265A-3 (run 3)): 19.15
- EC50 ([3]; F294A-1 (run 1)): 2090 nM
- LogEC50 ([3]; F294A-1 (run 1)): -5.679
- Span ([3]; F294A-1 (run 1)): 94.38
- Top ([3]; F294A-1 (run 1)): 95.1
- EC50 ([3]; F294A-2 (run 2)): 1280 nM
- LogEC50 ([3]; F294A-2 (run 2)): -5.892
- Span ([3]; F294A-2 (run 2)): 84.17
